The nature of this data set: Water dispersability, visual evaluation. Type of data set: physicochemical. To be noted: quantity corresponding to 50 mg of Coenzyme Q10 in about 40 ml of tap water at room temperature; evaluated visually. The protocol:
The water dispersability of the granulate of the invention was evaluated visually in comparison with unformulated Coenzyme Q10 administered as crystal powder. A quantity of the granulate of the invention corresponding to 50 mg of Coenzyme Q10 was dispersed in about 40 ml of tap water at room temperature. The product formed a very fine and homogeneous cloudy dispersion under mild agitation and no precipitation occurred.

Our source for the water dispersability values is EP3165218A1, “WATER DISPERSIBLE GRANULATES CONTAINING OXIDIZED OR REDUCED FORMS OF COENZYME Q10” (INDENA S.p.A., priority 2015, dated 2017).

Each structure is given as a SMILES string.

As for `COC1=C(OC)C(=O)C(C/C=C(\C)CC/C=C(\C)CC/C=C(\C)CC/C=C(\C)CC/C=C(\C)CC/C=C(\C)CC/C=C(\C)CC/C=C(\C)CC/C=C(\C)CCC=C(C)C)=C(C)C1=O` [crystalline Coenzyme Q10, Coenzyme Q10], the water dispersability result is listed as “the powder remained on the surface of water”.
